# Laboratory results as given in PubChem BioAssay (NCI).
#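 Five compound concentrations were applied to cells in 96-well plates for 48 hours; endpoints were derived by simple linear interpolation of the resulting dose-response curve. Abbreviation: GI50, concentration required for 50% inhibition of growth. At the TGI there is no net growth.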
# How the values were obtained:
# Experiment in all cases: NCI tumour cell line growth inhibition, 48 h
# [1] = tested on: SK-OV-3 ovarian
# [2] = tested on: NCI-H522 lung
# [3] = tested on: NCI/ADR-RES ovarian
# [4] = tested on: MCF7 breast
# [5] = tested on: CAKI-1 renal
# [6] = tested on: MOLT-4 leukemia
# [7] = tested on: SN12C renal
# [8] = tested on: NCI-H23 lung
# [9] = tested on: K-562 leukemia
# [10] = tested on: RXF 393 renal
SMILES,GI50 [1],TGI [1],GI50 [2],TGI [2],GI50 [3],TGI [3],GI50 [4],TGI [4],GI50 [5],TGI [5],GI50 [6],TGI [6],GI50 [7],TGI [7],GI50 [8],TGI [8],GI50 [9],TGI [9],GI50 [10],TGI [10]
COc1cc(/C=N/NC(=O)c2cnn3c2NC(c2ccccc2)C3)ccc1Oc1ccccc1 (stereo not given),1.47 µM,10.6 µM,366 nM,2.62 µM,1.73 µM,9.59 µM,436 nM,10.2 µM,996 nM,10.2 µM,1990 nM,20.4 µM,1780 nM,4.22 µM,1630 nM,10.8 µM,571 nM,18.6 µM,1500 nM,4.53 µM
O=P(CCCCP(=O)(c1ccccc1)c1ccccc1)(c1ccccc1)c1ccccc1.[Cl][Sn]([Cl])([c]1ccccc1)[c]1ccccc1,6.25 µM,19 µM,51.4 nM,0.208 µM,2.96 µM,10.8 µM,876 nM,2.64 µM,661 nM,3.32 µM,2060 nM,> 100 µM,2100 nM,5.76 µM,1480 nM,3.48 µM,444 nM,> 100 µM,1380 nM,3.13 µM
Cc1cc(=O)[nH]c2cc3c(c4c(n3Cc3ccc(Cl)cc3Cl)CC(C)(C)CC4=O)c(O)c12,> 100 µM,> 100 µM,> 100000 nM,> 100 µM,> 100 µM,> 100 µM,> 100000 nM,> 100 µM,> 100000 nM,> 100 µM,> 100000 nM,> 100 µM,> 100000 nM,> 100 µM,39600 nM,> 100 µM,> 100000 nM,> 100 µM,> 100000 nM,> 100 µM
C=C1C(=O)O[C@H]2[C@H](OC(C)=O)[C@@H](C)CCC/C(C)=C/CC[C@@]3(C)O[C@@H]3C[C@@H]12,,30.5 µM,,3.9 µM,,4 µM,,7.71 µM,,5.37 µM,,10.1 µM,,4.05 µM,,10.8 µM,,> 100 µM,,5.08 µM
O=c1[nH]c(=O)c2cc(C3CC(O)C(CO)O3)ccc2[nH]1 (stereo not given),> 100 µM,> 100 µM,> 100000 nM,> 100 µM,> 100 µM,> 100 µM,> 100000 nM,> 100 µM,> 100000 nM,> 100 µM,> 100000 nM,> 100 µM,> 100000 nM,> 100 µM,> 100000 nM,> 100 µM,> 100000 nM,> 100 µM,> 100000 nM,> 100 µM
C=C(C)[C@@H]1CC[C@]2(C)[C@H](CC=C3[C@@H]4[C@@H](C)[C@H](C)CC[C@]4(C(N)=O)CC[C@]32C)[C@@]1(C)CCC#N,7.31 µM,> 100 µM,3560 nM,50.9 µM,4 µM,17.2 µM,3590 nM,> 100 µM,3250 nM,> 100 µM,2920 nM,21 µM,3360 nM,10.7 µM,5720 nM,> 100 µM,3380 nM,> 100 µM,3330 nM,11.4 µM
COC(=O)CCC1CCC(c2cc(F)ccc2F)(S(=O)(=O)c2ccc(Cl)cc2)CC1 (stereo not given),> 100 µM,> 100 µM,62400 nM,> 100 µM,> 100 µM,> 100 µM,70200 nM,> 100 µM,6000 nM,> 100 µM,49800 nM,> 100 µM,> 100000 nM,> 100 µM,42500 nM,> 100 µM,> 100000 nM,> 100 µM,55400 nM,> 100 µM
COc1ccc(S(=O)(=O)Nc2cc(/C=C\c3cc(OC)c(OC)c(OC)c3)ccc2OC)cc1,0.0963 µM,38.3 µM,20.4 nM,0.0564 µM,0.0711 µM,30.8 µM,42.6 nM,> 100 µM,51.5 nM,20.6 µM,388 nM,> 100 µM,682 nM,> 100 µM,480 nM,> 100 µM,53 nM,> 100 µM,81.4 nM,> 100 µM
COC(=O)C1CCCN1C(=O)[C@@H]1CCCN1C(=O)[C@H](Cc1c[nH]c2ccccc12)NC(=S)Nc1cc(C(F)(F)F)cc(C(F)(F)F)c1 (stereo not given in full),2.95 µM,11.4 µM,2150 nM,4.99 µM,3.85 µM,22.1 µM,2190 nM,6 µM,2730 nM,11.1 µM,2040 nM,8.62 µM,2820 nM,10.5 µM,2780 nM,10 µM,2920 nM,13.3 µM,1780 nM,4.4 µM
N#CC1=C(N)Oc2c(sc3c(Br)cccc23)C1c1ccc(Br)cc1 (stereo not given),0.316 µM,3.38 µM,88 nM,0.534 µM,0.416 µM,5.14 µM,382 nM,12.4 µM,1970 nM,22.2 µM,546 nM,8.11 µM,2330 nM,13.4 µM,1580 nM,13.4 µM,137 nM,3.16 µM,1970 nM,6.18 µM
CC(C)c1c(O)ccc2c1CCC1C(C)(C)CCCC21C (stereo not given),,33.4 µM,,34.6 µM,,31.2 µM,,35.3 µM,,31.7 µM,,43.3 µM,,27.8 µM,,31.8 µM,,50 µM,,29.3 µM
COc1ccc(-n2cc(-c3cc(OC)c(OC)c(OC)c3)nc2SCc2ccccc2)cc1OC,> 100 µM,> 100 µM,41800 nM,> 100 µM,> 100 µM,> 100 µM,34600 nM,> 100 µM,> 96600 nM,> 100 µM,24600 nM,> 100 µM,> 100000 nM,> 100 µM,> 100000 nM,> 100 µM,54700 nM,> 100 µM,56300 nM,> 100 µM
CCN1Cc2c(ccc(F)c2C#N)O[C@@H](C)CNC(=O)c2c(N)nn3ccc1nc23,1.66 µM,15.3 µM,5040 nM,41.3 µM,6.03 µM,56.3 µM,3230 nM,31.1 µM,399 nM,1.98 µM,2750 nM,69.2 µM,1350 nM,18.5 µM,2300 nM,29.4 µM,175 nM,> 100 µM,460 nM,3.67 µM
Cc1cc(Cc2cc(C)cc(C(C)(C)C)c2O)c(O)c(Cc2cc(C)cc(C(C)(C)C)c2O)c1,,10.9 µM,,4.28 µM,,12.6 µM,,7.93 µM,,13.5 µM,,5.83 µM,,8.28 µM,,5.34 µM,,6.33 µM,,8.21 µM
CCC[CH2][Sn]([CH2]CCC)([CH2]CCC)[O]C(=O)c1ccc(Cl)cc1Cl,0.142 µM,0.279 µM,78.4 nM,0.251 µM,0.177 µM,0.378 µM,137 nM,0.278 µM,78.5 nM,0.255 µM,215 nM,1.71 µM,145 nM,0.35 µM,130 nM,0.296 µM,263 nM,1.02 µM,151 nM,0.321 µM
OC(CNCC1CCCO1)Cn1c2ccc(Cl)cc2c2cc(Cl)ccc21 (stereo not given),2.08 µM,4.19 µM,1890 nM,3.6 µM,1.93 µM,3.82 µM,1720 nM,3.25 µM,1540 nM,3 µM,2090 nM,4.65 µM,2060 nM,4.58 µM,1920 nM,3.61 µM,2150 nM,4.76 µM,1620 nM,3.51 µM
CCCCCCCCCCC(C(O)c1ccccc1)N1CCCCC1 (stereo not given),2.59 µM,7.82 µM,1940 nM,3.91 µM,2.99 µM,10.7 µM,1870 nM,3.43 µM,1530 nM,3.06 µM,2230 nM,5.86 µM,2550 nM,10.4 µM,2270 nM,5.97 µM,2190 nM,5.93 µM,1760 nM,3.4 µM
O=C1C2C(c3ccccc3)NC(c3ccccc3)C1C(c1ccccc1)NC2c1ccccc1 (stereo not given),,> 100 µM,,> 100 µM,,> 100 µM,,> 100 µM,,> 100 µM,,> 100 µM,,> 100 µM,,> 100 µM,,> 100 µM,,> 100 µM
O=C(O)C1C(C(=O)O)C23CC2(C(=O)O)C2(C(=O)O)CCC3=C3CCCC312 (stereo not given),,36.6 µM,,16 µM,,> 100 µM,,63.3 µM,,81.9 µM,,30.2 µM,,36.4 µM,,36.4 µM,,95.5 µM,,37.7 µM
COc1cc(/C=C/C(=O)c2c(C)nc3ccccc3c2/C=C/c2ccc(C)cc2)cc(OC)c1OC,11 µM,> 100 µM,1830 nM,5.56 µM,2.48 µM,7.78 µM,1390 nM,3.51 µM,1400 nM,3.01 µM,2560 nM,> 100 µM,1850 nM,4.31 µM,1720 nM,3.8 µM,2750 nM,> 100 µM,1630 nM,3.13 µM
Clc1ccc2nnnn2n1,10.5 µM,92.9 µM,3010 nM,11.2 µM,5.61 µM,> 100 µM,3110 nM,14.3 µM,10100 nM,22.8 µM,3260 nM,44.5 µM,4700 nM,> 100 µM,5980 nM,35.4 µM,2770 nM,17.4 µM,2750 nM,8.65 µM
Cc1ccc2nc(-c3ccccc3)c(N=O)n2c1,,> 100 µM,,> 100 µM,,> 100 µM,,> 100 µM,,> 100 µM,,> 100 µM,,61 µM,,> 100 µM,,> 100 µM,,> 100 µM
CC(C)COCC(CN(Cc1ccccc1)c1ccccc1)N1CCCC1 (stereo not given),3.17 µM,13.6 µM,1610 nM,3.35 µM,3.12 µM,14.4 µM,2060 nM,4.78 µM,3250 nM,13.7 µM,3610 nM,13.1 µM,3480 nM,15.4 µM,2820 nM,14.6 µM,3430 nM,10.3 µM,1760 nM,6.37 µM
CCOC(=O)/C(=C\c1ccc(C#N)cc1)C(C)=O,,> 100 µM,,24.9 µM,,> 100 µM,,61.9 µM,,> 100 µM,,> 100 µM,,62.8 µM,,36.7 µM,,> 100 µM,,30.6 µM
CC(NCCC(=O)N(CCC(=O)N(CCC(=O)N(CCC(=O)N(CCC(=O)N(CCC(=O)N(CCC(=O)N(CCC(=O)N(CCC(=O)N(CCC(=O)O)[C@H](C)c1ccccc1)[C@H](C)c1ccccc1)[C@H](C)c1ccccc1)[C@H](C)c1ccccc1)[C@H](C)c1ccccc1)[C@H](C)c1ccccc1)[C@H](C)c1ccccc1)[C@H](C)c1ccccc1)[C@H](C)c1ccccc1)c1ccccc1 (stereo not given in full),10.6 µM,> 53 µM,2120 nM,24.5 µM,> 75 µM,> 75 µM,2030 nM,> 26.1 µM,3490 nM,> 45.1 µM,1610 nM,6.7 µM,3660 nM,> 75 µM,3900 nM,49.1 µM,2290 nM,> 75 µM,1470 nM,3.78 µM
COC(=O)C1=C(C(=O)OC)SC(=C(Cl)C(=S)Nc2ccccc2O)S1,20 µM,> 50 µM,10300 nM,23.3 µM,14.1 µM,35.1 µM,8570 nM,25.7 µM,9630 nM,21.8 µM,46800 nM,> 50 µM,9690 nM,19.7 µM,6670 nM,20.1 µM,22600 nM,> 50 µM,11700 nM,29.5 µM
